Measured values reported in US5639745A, “Fused-bicyclic lactams as interleukin-1β converting enzyme inhibitors” (Sanofi, priority 1995, dated 1997).

Key:
ICE (IL-1β protease) = molecular target: T1, ICE (IL-1β protease) (Homo sapiens, UniProt P29466); experiment: modified in vitro enzyme assay, reversible Ki* for ICE (Succinyl-Tyr-Val-Ala-Asp-amino methylcoumarin substrate); format: biochemical; conditions: aldehydes
T1 sequence (P29466 120-297 limits assumed): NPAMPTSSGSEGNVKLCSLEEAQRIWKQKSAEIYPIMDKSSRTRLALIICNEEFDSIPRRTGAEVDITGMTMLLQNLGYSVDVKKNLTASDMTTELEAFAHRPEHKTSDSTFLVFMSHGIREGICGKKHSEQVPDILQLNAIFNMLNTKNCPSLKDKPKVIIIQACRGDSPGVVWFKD
T1 sequence (P29466 317-404 limits assumed): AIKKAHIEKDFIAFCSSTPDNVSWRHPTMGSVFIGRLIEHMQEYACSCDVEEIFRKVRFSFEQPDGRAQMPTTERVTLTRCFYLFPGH
Method: Second order rates of inactivation were obtained by using the enzyme assay described in Dolle, R. E.; et al., J. Med Chem. (1994), 37, 563. […] In the case of these reversible inhibitors, the in vitro assay was modified to obtain the reversible Ki * as follows:
Ki * values for reversible inhibitors were determined by preincubating ICE with various concentrations of inhibitor in 10 mM HEPES (a common laboratory buffer; pH 7.5), 25% glycerol, 1 mM dithiothreitol for 30 minutes at 37 ° C. in a polystyrene 96-well plate. Remaining ICE activity was measured by adding 10 uM Succinyl-Tyrosine-Valine-Alanine-Aspartic acid-amino methylcoumarin (Bachem Bioscience, Inc.) and monitoring the increase in fluorescence at 37° C. using a Fluoroskan II fluorescence plate reader. The Ki * was calculated from a plat of 1/v versus I as described previously (Morrison, J. F. and Cleland, W. W. (1983) Biochemistry 22, 5507-5513.

[1] = system: mature IL-1β release from human monocytes; experiment: human monocyte pulse chase assay, inhibition of release of mature IL-1β (called In Vivo Assay); format: cell-based; conditions: human monocytes stimulated with fixed S. aureus
Method: In vivo inhibition (IC50) was determined as follows:
Human monocytes were isolated from heparinized leukopheresis units obtained through Biological Specialty Corporation (Lansdale, Pa.). Monocytes were purified by Ficoll-Hupaque (Pharmacia Fine Chemicals, Piscataway, N.J.) gradient centrifugation and more than 95% pure monocyte populations obtained by centrifugal elutriation. The assay was performed on duplicate samples of freshly isolated human monocytes, cultured in suspension at 37° C. and rotated gently in conical bottom polypropylene tubes (Sardstedt Inc., Princeton, N.J.). Human monocytes at a concentration of 5×10^6 cells/mL were resuspended in 1 mL of RPMI 1640 (a common tissue buffer from M. A. Bioproducts, Walkersville, Md.) containing 1% fetal calf serum (FCS) (HyClone, Logan, Utah) and 50 μg/mL gentamycin (Gibco, Grand Island, N.Y.). The cells were treated either with a compound of the invention (i.e. test compound) or with a non-inhibitor (control compound, typically 0.03% DMSO) for 15 minutes and then activated with 0.01% fixed Staphylococcus aureus (The Enzyme Center, Malden, Mass.) for 1 hour. The cells were then centrifuged and resuspended in 1 mL of cysteine, methionine-free RPMI media containing 1% dialyzed FCS (Hyclone). The cells were pretreated with a test compound or control compound for 15 minutes after which 0.01% fixed S. aureus plus 100 μCi Tran 35-S label (ICN, Irvine, Calif.) was added and the cells incubated at 37° C. for 1 hour. After incubation, cells were centrifuged, washed once in phosphate buffer saline and resuspended in 1 mL RPMI containing 1% fetal calf serum. The cells were again pretreated with a test or control compound for 15 minutes and then 0.01% S. aureus for 2 hours. At the end of the incubation, cells were centrifuged and supernates saved for immunoprecipitation. Cells were washed once in phosphate buffer saline and then lysed in RIPA, a continuous cell media buffer containing 2 mM phenylmethylsulfonyl fluoride, 10 mM iodoacetate, 1 μg/mL pepstatin A, 1 μg/mL leupeptin and 0.5 TIU aprotinin.
For the immunoprecipitations, an equal volume of 1% dry milk in RIPA buffer plus 50 μL of resuspended protein A sepharose CL-4B (Pharmacia, Piscataway, N.Y.) was added to supernates and 1 mL of 4% dry milk containing protein A sepharose CL-4B to cell lysates and samples rotated for 30 minutes at 4° C. Beads were then centrifuged down, samples transferred to fresh tubes and incubated overnight with 40 μg rabbit anti-human IL-1β polyclonal antibody (Genzyme, Cambridge, Mass.). The IL-1β proteins were then precipitated with 70 μL protein A sepharose, resuspended in 60 μL SDS sample buffer and run on 15% SGD-PAGE gels. Autoradiography was performed on dried gels and the amount of radioactivity (counts per minute, cpm) quantitated using a Betascope 603 analyzer.
In the monocyte pulse chase assay, each test parameter was run in duplicate. Data was collected from the Beta Scope using a personal computer, then transferred to the VAX system for calculation of mean cpm and standard deviation of the mean. When test compounds were evaluated, the percent inhibition of release of mature IL-1β was calculated as follows:
100×[1-(cells treated with stimuli+test compound-unstimulated cells)/(cells treated with stimuli+control compound-unstimulated cells)]
These % inhibition values were then used to calculate IC50 value for each compound. Since the human monocyte pulse chase assay uses primary cells from different donors, each test compound was run in 2-3 separate experiments, using monocytes from 2-3 different donors.

IL-1 receptor [2] = conditions: colitis model; cited from earlier work
IL-1 receptor [3] = conditions: PG-APS arthritis, rats; cited from earlier work
IL-1 receptor [4] = conditions: open-label human trial, subcutaneous; cited from earlier work
[5] = system: chronic myelogenous leukemia cells; conditions: cells removed from chronic myelogenous leukemia patients; cited from earlier work
[6] = system: acute myelogenous leukemia cells; conditions: cited from earlier work

IC50 [1] [µM]	Molecule	mode of inhibition / binding kinetics (ICE (IL-1β protease))	tissue necrosis and number of inflammatory cells in the colon (IL-1 receptor [2])	joint swelling (IL-1 receptor [3])	efficacy in Rheumatoid Arthritis (IL-1 receptor [4])	colony growth inhibition [5]	blast proliferation inhibition [6]
< 10	O=C[C@H](CC(=O)O)NC(=O)[C@@H]1CCCN2C(=O)CC[C@H](NC(=O)OCc3ccccc3)C(=O)N12 [Example 2]	reversible inhibitors and display slow binding kinetics					
< 10	O=C[C@H](CC(=O)O)NC(=O)[C@@H]1CCCN2C(=O)CC[C@H](NC(=O)c3ccccc3)C(=O)N12 [Example 21]	reversible inhibitors and display slow binding kinetics					
< 10	O=C[C@H](CC(=O)O)NC(=O)[C@@H]1CCCN2C(=O)CC[C@H](NC(=O)c3ccc(OCC(=O)O)cc3)C(=O)N12 [Example 22]	reversible inhibitors and display slow binding kinetics					
	IL-1ra: IL-1 receptor antagonist		reduced tissue necrosis and the number of inflammatory cells in the colon	supresses joint swelling	shows efficacy	inhibit colony growth	Inhibition of Acute Myelogenous Leukemia Blast Proliferation
